Assay results from US8501755B2, “Tetrahydropyridothienopyrimidine compounds and methods of use thereof” (Bayer Intellectual Property GmbH, priority 2006, dated 2013).

Legend:
Format in all cases: cell-based
N87 = assay: In vitro tumor cell proliferation assay (Cell Titer-Glo) in N87 cells; conditions: N87 human gastric carcinoma overexpressing HER2 and HER1; 72 hours exposure; read-out: IC50, activities in N87 cell lines
Summary of the method: (§1)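 Viability after 72 h drug exposure at 37 °C was read as CellTiter-Glo ATP luminescence, giving IC50. Cells (2.5×10^3/well, RPMI + 10% FBS) were compound-treated one day post-seeding, 0.1% DMSO final: A431 overexpresses HER1, N87 overexpresses HER2 and HER1.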

H1975 cells = assay: In vitro tumor cell proliferation assay (Cell Titer-Glo) in H1975 cells; conditions: NCI-H1975; H1975 human NSCLC expressing mutant HER1 (L858R,T790M); 72 hours exposure; read-out: IC50, activities in H 1975 cell lines
Summary of the method: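 After 72 h compound exposure at 37° C (top 10 uM down to 64 pM, 0.1% DMSO), viability of EGFR L858R/T790M-mutant H1975 cells was read as ATP luminescence.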

A431 cells = assay: In vitro tumor cell proliferation assay (Cell Titer-Glo) in A431 cells; conditions: Homo sapiens, A-431, 72 h, A431 human epidermoid carcinoma overexpressing HER1; 72 hours exposure; read-out: IC50, activities in A431 cell lines
Summary of the method: as §1

Row | Structure (SMILES) | IC50 (N87) [nM] | IC50 (H1975 cells) [nM] | IC50 (A431 cells) [nM]
1 | Cc1cccc(COc2ccc(Nc3ncnc4sc5c(c34)CCN(C(=O)/C=C/CN3CCCC3)C5)cc2Cl)n1 [Example 78, N-{3-chloro-4-[(6-methylpyridin-2-yl)methoxy]phenyl}-7-[(2E)-4-pyrrolidin-1-ylbut-2-enoyl]-5,6,7,8-tetrahydropyrido [4′,3′:4,5]thieno[2,3-d]pyrimidin-4-amine] | < 200 | 1000 to 10000 | 1000 to 10000
2 | O=C(/C=C/CN1CCOCC1)N1CCc2c(sc3ncnc(Nc4ccc(OCc5cnccn5)c(Cl)c4)c23)C1 [Example 80, N-[3-chloro-4-(pyrazin-2-ylmethoxy)phenyl]-7-[(2E)-4-morpholin-4-ylbut-2-enoyl]-5,6,7,8-tetrahydropyrido [4′3′:4,5]thieno[2,3-d]pyrimidin-4-amine] | < 200 | 1000 to 10000 | 1000 to 10000
3 | CCN(C)C/C=C/C(=O)N1CCc2c(sc3ncnc(Nc4ccc(OCc5cnccn5)c(Cl)c4)c23)C1 [Example 81, N-[3-chloro-4-(pyrazin-2-ylmethoxy)phenyl]-7-{(2E)-4-[ethyl(methyl)amino]but-2-enoyl}-5,6,7,8-tetrahydropyrido [4′,3′:4,5]thieno[2,3-d]pyrimidin-4-amine] | < 200 | 200 to 1000 | 1000 to 10000
4 | CC(C)N(C)C/C=C/C(=O)N1CCc2c(sc3ncnc(Nc4ccc(OCc5cnccn5)c(Cl)c4)c23)C1 [Example 82, N-[3-chloro-4-(pyrazin-2-ylmethoxy)phenyl]-7-{(2E)-4-[isopropyl(methyl)amino]but-2-enoyl}-5,6,7,8-tetrahydropyrido [4′3′:4,5]thieno[2,3-d]pyrimidin-4-amine] | < 200 | 200 to 1000 | 1000 to 10000
5 | O=C(/C=C/CN1CCCC1)N1CCc2c(sc3ncnc(Nc4ccc(OCc5cnccn5)c(Cl)c4)c23)C1 [Example 83, N-[3-chloro-4-(pyrazin-2-ylmethoxy)phenyl]-7-[(2E)-4-pyrrolidin-1-ylbut-2-enoyl]-5,6,7,8-tetrahydropyrido [4′3′:4,5]thieno[2,3-d]pyrimidin-4-amine] | < 200 | 200 to 1000 | 1000 to 10000
6 | Cc1cccc(COc2ccc(Nc3ncnc4sc5c(c34)CCN(C(=O)/C=C/CN3CCOCC3)C5)cc2Cl)n1 [Example 84, N-{3-chloro-4-[(6-methylpyridin-2-yl)methoxy]phenyl}-7-[(2E)-4-morpholin-4-ylbut-2-enoyl]-5,6,7,8-tetrahydropyrido [4′,3′:4,5]thieno[2,3-d]pyrimidin-4-amine] | < 200 | 1000 to 10000 | 1000 to 10000
7 | CN(C)C/C=C/C(=O)N1CCc2c(sc3ncnc(Nc4ccc(OCc5cnccn5)c(Cl)c4)c23)C1 [Example 85, N-[3-chloro-4-(pyrazin-2-ylmethoxy)phenyl]-7-[(2E)-4-(dimethylamino)but-2-enoyl]-5,6,7,8-tetrahydropyrido [4′,3′:4,5]thieno[2,3-d]pyrimidin-4-amine] | < 200 | 200 to 1000 | 200 to 1000
8 | CCN(CC)C/C=C/C(=O)N1CCc2c(sc3ncnc(Nc4ccc(OCc5cccnc5)c(Cl)c4)c23)C1 [Example 86, N-[3-chloro-4-(pyridin-3-ylmethoxy)phenyl]-7-[(2E)-4-(diethylamino)but-2-enoyl]-5,6,7,8-tetrahydropyrido [4′,3′:4,5]thieno[2,3-d]pyrimidin-4-amine] | < 200 | 200 to 1000 | 1000 to 10000
9 | CN(C)C/C=C/C(=O)N1CCc2c(sc3ncnc(Nc4ccc(OCc5cccnc5)c(Cl)c4)c23)C1 [Example 87, N-[3-chloro-4-(pyridin-3-ylmethoxy)phenyl]-7-[(2E)-4-(dimethylamino)but-2-enoyl]-5,6,7,8-tetrahydropyrido [4′,3′:4,5]thieno[2,3-d]pyrimidin-4-amine] | < 200 | 200 to 1000 | 200 to 1000
10 | O=C(/C=C/CN1CCCCC1)N1CCc2c(sc3ncnc(Nc4ccc(OCc5cccnc5)c(Cl)c4)c23)C1 [Example 88, N-[3-chloro-4-(pyridin-3-ylmethoxy)phenyl]-7-[(2E)-4-piperidin-1-ylbut-2-enoyl]-5,6,7,8-tetrahydropyrido [4′3′:4,5]thieno[2,3-d]pyrimidin-4-amine] | < 200 | 200 to 1000 | 1000 to 10000
11 | O=C(/C=C/CN1CCOCC1)N1CCc2c(sc3ncnc(Nc4ccc(OCc5cccnc5)c(Cl)c4)c23)C1 [Example 89, N-[3-chloro-4-(pyridin-3-ylmethoxy)phenyI]-7-[(2E)-4-morpholin-4-ylbut-2-enoyl]-5,6,7,8-tetrahydropyrido [4′,3′:4,5]thieno[2,3-d]pyrimidin-4-amine] | < 200 | 200 to 1000 | 1000 to 10000
12 | CCN(C)C/C=C/C(=O)N1CCc2c(sc3ncnc(Nc4ccc(OCc5cccnc5)c(Cl)c4)c23)C1 [Example 90, N-[3-chloro-4-(pyridin-3-ylmethoxy)phenyl]-7-{(2E)-4-[ethyl(methyl)amino]but-2-enoyl}-5,6,7,8-tetrahydropyrido [4′,3′:4,5]thieno[2,3-d]pyrimidin-4-amine] | < 200 | 200 to 1000 | 1000 to 10000

Next, values leading:

Row | IC50 (N87) [nM] | IC50 (H1975 cells) [nM] | IC50 (A431 cells) [nM] | Structure (SMILES)
13 | < 200 | 200 to 1000 | 1000 to 10000 | CC(C)N(C)C/C=C/C(=O)N1CCc2c(sc3ncnc(Nc4ccc(OCc5cccnc5)c(Cl)c4)c23)C1 [Example 91, N-[3-chloro-4-(pyridin-3-ylmethoxy)phenyl]-7-{(2E)-4-[isopropyl(methyl)amino]but-2-enoyl}-5,6,7,8-tetrahydropyrido [4′,3′:4,5]thieno[2,3-d]pyrimidin-4-amine]
14 | < 200 | < 200 | < 200 | CN(C)C/C=C/C(=O)N1CCc2c(sc3ncnc(Nc4ccc5c(cnn5Cc5cccc(F)c5)c4)c23)C1 [Example 92, 7-[(2E)-4-(dimethylamino)but-2-enoyl]-N-[1-(3-fluorobenzyl)-1H-indazol-5-yl]-5,6,7,8-tetrahydropyrido [4′,3′:4,5]thieno[2,3-d]pyrimidin-4-amine]
15 | < 200 | < 200 | 200 to 1000 | CN(C)C/C=C/C(=O)N1CCc2c(sc3ncnc(Nc4ccc5c(ccn5Cc5ccccc5)c4)c23)C1 [Example 93, N-(1-benzyl-1H-indol-5-yl)-7-[(2E)-4-(dimethylamino)but-2-enoyl]-5,6,7,8-tetrahydropyrido [4′,3′:4,5]thieno[2,3-d]pyrimidin-4-amine]
16 | < 200 | 200 to 1000 | 200 to 1000 | CCN(CC)C/C=C/C(=O)N1CCc2c(sc3ncnc(Nc4ccc5c(ccn5Cc5ccccc5)c4)c23)C1 [Example 94, N-(1-benzyl-1H-indol-5-yl)-7-[(2E)-4-(diethylamino)but-2-enoyl]-5,6,7,8-tetrahydropyrido [4′,3′:4,5]thieno[2,3-d]pyrimidin-4-amine]
17 | < 200 | 200 to 1000 | 200 to 1000 | CCN(CC)C/C=C/C(=O)N1CCc2c(sc3ncnc(Nc4ccc5c(cnn5Cc5ccccc5)c4)c23)C1 [Example 95, N-(1-benzyl-1H-indazol-5-yl)-7-[(2E)-4-(diethylamino)but-2-enoyl]-5,6,7,8-tetrahydropyrido [4′,3′:4,5]thieno[2,3-d]pyrimidin-4-amine]
18 | < 200 | 200 to 1000 | 1000 to 10000 | O=C(/C=C/CN1CCCCC1)N1CCc2c(sc3ncnc(Nc4ccc5c(ccn5Cc5ccccc5)c4)c23)C1 [Example 96, N-(1-benzyl-1H-indol-5-yl)-7-[(2E)-4-piperidin-1-ylbut-2-enoyl]-5,6,7,8-tetrahydropyrido [4′,3′:4,5]thieno[2,3-d]pyrimidin-4-amine]
19 | < 200 | 200 to 1000 | 200 to 1000 | CN(C)C/C=C/C(=O)N1CCc2c(sc3ncnc(Nc4ccc5c(cnn5Cc5ccccc5)c4)c23)C1 [Example 97, N-(1-benzyl-1H-indazol-5-yl)-7-[(2E)-4-(dimethylamino)but-2-enoyl]-5,6,7,8-tetrahydropyrido [4′,3′:4,5]thieno[2,3-d]pyrimidin-4-amine]
20 | < 200 | < 200 | 200 to 1000 | CN(C)C/C=C/C(=O)N1CCc2c(sc3ncnc(Nc4ccc5c(ccn5Cc5cccc(F)c5)c4)c23)C1 [Example 98, 7-[(2E)-4-(dimethylamino)but-2-enoyl]-N-[1-(3-fluorobenzyl)-1H-indol-5-yl]-5,6,7,8-tetrahydropyrido [4′,3′:4,5]thieno[2,3-d]pyrimidin-4-amine]
21 | < 200 | 200 to 1000 | 200 to 1000 | CCN(CC)C/C=C/C(=O)N1CCc2c(sc3ncnc(Nc4ccc5c(cnn5Cc5cccc(F)c5)c4)c23)C1 [Example 99, 7-[(2E)-4-(diethylamino)but-2-enoyl]-N-[1-(3-fluorobenzyl)-1H-indazol-5-yl]5,6,7,8-tetrahydropyrido [4′,3′:4,5]thieno[2,3-d]pyrimidin-4-amine]
22 | < 200 | 200 to 1000 | 200 to 1000 | CCN(CC)C/C=C/C(=O)N1CCc2c(sc3ncnc(Nc4ccc5c(ccn5Cc5cccc(F)c5)c4)c23)C1 [Example 100, 7-[(2E)-4-(diethylamino)but-2-enoyl]-N-[1-(3-fluorobenzyl)-1H-indol-5-yl]-5,6,7,8-tetrahydropyrido [4′,3′:4,5]thieno[2,3-d]pyrimidin-4-amine]
23 | < 200 | 200 to 1000 | 200 to 1000 | O=C(/C=C/CN1CCCCC1)N1CCc2c(sc3ncnc(Nc4ccc5c(cnn5Cc5cccc(F)c5)c4)c23)C1 [Example 101]
